The source of these data is US20160297768A1, “NOVEL IMIDAZOLE DERIVATIVES AND THERAPEUTIC USE THEREOF” (INDUSTRY-ACA-DEMIC COORPERATION FOUNDATION, YONSEI …, priority 2013, published 2016).

For one experiment, the system named is A549 cells. Briefly: Apoptotic activity by MTT analysis, A549 cells. It counts as cell-based. The following applies: 15 μM of the compound, mean±standard deviation; for cytotoxicity at 15 µM: Homo sapiens, A549, 12 h, read-out: Apoptosis (%) A549 cells; for Apoptosis (%) A549 cells: 12 hours. The procedure: (§1) Lung cancer cells (A549), colorectal cancer cells (HCT116), HeLa cells, liver cancer cells (HepG2), T-cell leukemia cells (Jurkat), myeloid leukemia cells (K562), breast cancer cells (MCF-7 and MDA-MB-231) and myelocytic leukemia cells ([…]) were obtained from the American Type Culture Collection (ATCC), and cultured in 10% fetal bovine serum (FBS), 50 units/mL penicillin and 50 units/mL streptomycin-added RPMI 1640 (Invitrogen). The cells were maintained in a humidified 37° C., 5% CO2 atmosphere. The anticancer activity was detected by MTT analysis. Each type of cancer cells were plated in triplicate in a 96-well microtiter plate, and cultured at 37° C. for 24 hours. The cells were treated with each of the compounds prepared above at 37° C. for 12 hours. After the culturing of the cells, 10 μL of an MTT reagent ((3-[4,5-dimethyl-2-thiazolyl]-2,5-diphenyl-2H-tetrazoliumbromide) was added to each well, and cultured for 3.5 hours. The absorbance of each sample was detected using a UV microplate reader (SpectraMax 340PC 384, Molecular Devices) at 570 nm. The detection results were measured as a mean value. The effect of each compound on apoptosis is shown in Table 1.
(§2) The A549 and HeLa cells were treated with 15 μM of the compound for 12 hours. The apoptosis was detected using MTT (mean±standard deviation).

The next experiment relates to HeLa cells. As to the kind of experiment: Apoptotic activity by MTT analysis, HeLa cells. The following applies: 15 μM of the compound, mean±standard deviation; for cytotoxicity at 15 µM: Homo sapiens, HeLa, 12 h, read-out: Apoptosis (%) HeLa cells; for Apoptosis (%) HeLa cells: 12 hours. The class given is cell-based. The procedure: as §1, §2

Take `NCCOCCOCCNC(=O)c1ccc(Cn2c(-c3cccc(C(F)(F)F)c3)nc(-c3ccc(Br)cc3)c2-c2ccc(Br)cc2)cc1` [Example 2, N-(2-(2-(2-aminoethoxy)ethoxy)ethyl)-4-((4,5-bis(4-bromophenyl)-2-(3-(trifluoromethyl)phenyl)-1H-imidazole-1-yl)methyl)benzamide]: the cytotoxicity at 15 µM in the experiment with A549 cells is 80 ± 1.16%; in the experiment on HeLa cells it was 88 ± 1.39%.

For the compound `COc1cccc(-c2nc(-c3cccc(C(F)(F)F)c3)n(Cc3ccc(C(=O)NCCOCCOCCN)cc3)c2-c2cccc(OC)c2)c1` [Example 11, N-(2-(2-(2-aminoethoxy)ethoxy)ethyl)-4-((4,5-bis(3-methoxyphenyl)-2-(3-(trifluoromethyl)phenyl)-1H-imidazole-1-yl)methyl)benzamide], the cytotoxicity at 15 µM with A549 cells was 81 ± 1.26%; in the experiment on HeLa cells, 87 ± 1.55%.

Regarding `CN(C)c1ccc(-c2nc(-c3cccc(C(F)(F)F)c3)n(Cc3ccc(C(=O)NCCOCCOCCN)cc3)c2-c2ccc(N(C)C)cc2)cc1` [Example 27, N-(2-(2-(2-aminoethoxy)ethoxy)ethyl)-4-((4,5-bis(4-(dimethylamino)phenyl)-2-(3-(trifluoromethyl)phenyl)-1H-imidazole-1-yl)methyl)benzamide], the cytotoxicity at 15 µM with A549 cells is 76 ± 0.98%; with HeLa cells it was 86 ± 0.38%.

Regarding `Cc1ccc(-c2nc(-c3cccc(C(F)(F)F)c3)n(Cc3ccc(C(=O)NCCOCCOCCN)cc3)c2-c2ccc(C)cc2)cc1` [Example 35, N-(2-(2-(2-aminoethoxy)ethoxy)ethyl)-4-((4,5-ditolyl-2-(3-(trifluoromethyl)phenyl)-1H-imidazole-1-yl)methyl)benzamide], the cytotoxicity at 15 µM with A549 cells is 64 ± 1.36%; in the experiment on HeLa cells, 87 ± 1.68%.

For `COc1ccc(-c2nc(-c3ccc(C(F)(F)F)cc3)n(Cc3ccc(C(=O)NCCOCCOCCN)cc3)c2-c2ccc(OC)cc2)cc1` [Example 43, N-(2-(2-(2-aminoethoxy)ethoxy)ethyl)-4-((4,5-bis(4-methoxyphenyl)-2-(4-(trifluoromethyl)phenyl)-1H-imidazole-1-yl)methyl)benzamide], the cytotoxicity at 15 µM with A549 cells was determined as 36 ± 0.86%; in the experiment with HeLa cells, 38 ± 0.38%.

Turning to `COc1ccc(-c2nc(-c3ccc(C(F)(F)F)cc3C(F)(F)F)n(Cc3ccc(C(=O)NCCOCCOCCN)cc3)c2-c2ccc(OC)cc2)cc1` [Example 44, N-(2-(2-(2-aminoethoxy)ethoxy)ethyl)-4-((2-(2,4-bis(trifluoromethyl)phenyl)-4,5-bis(4-methoxyphenyl)-1H-imidazole-1-yl)methyl)benzamide], the cytotoxicity at 15 µM came to 38 ± 0.68% in the experiment on A549 cells and 31 ± 0.28% in the experiment with HeLa cells.

As to `COc1ccc(-c2nc(-c3cc(C)cc(C)c3)n(Cc3ccc(C(=O)NCCOCCOCCN)cc3)c2-c2ccc(OC)cc2)cc1` [Example 45, N-(2-(2-(2-aminoethoxy)ethoxy)ethyl)-4-((2-(3,5-dimethylphenyl)-4,5-bis(4-methoxyphenyl)-1H-imidazole-1-yl)methyl)benzamide], the cytotoxicity at 15 µM with A549 cells was 37 ± 0.5%; with HeLa cells, 34 ± 1.61%.

As to `COc1ccc(-c2nc(-c3cc(OC)cc(OC)c3)n(Cc3ccc(C(=O)NCCOCCOCCN)cc3)c2-c2ccc(OC)cc2)cc1` [Example 46, N-(2-(2-(2-aminoethoxy)ethoxy)ethyl)-4-((2-(3,5-dimethoxyphenyl)-4,5-bis(4-methoxyphenyl)-1H-imidazole-1-yl)methyl)benzamide], the results for the cytotoxicity at 15 µM with A549 cells and in the experiment with HeLa cells were 37 ± 1.34% and 48 ± 0.28%, respectively.

For the compound `COC(=O)c1cc(C(=O)OC)cc(-c2nc(-c3ccc(OC)cc3)c(-c3ccc(OC)cc3)n2Cc2ccc(C(=O)NCCOCCOCCN)cc2)c1` [Example 47, Dimethyl 5-(1-(4-(2-(2-(2-aminoethoxy)ethoxy)ethylcarbamoyl)benzyl)-4,5-bis(4-methoxyphenyl)-1H-imidazole-2-yl)isophthalate], the cytotoxicity at 15 µM in the experiment with A549 cells is 37 ± 0.86%; with HeLa cells, 40 ± 0.7%.

As to `COc1ccc(-c2nc(-c3cc(OC)c(OC)c(OC)c3)n(Cc3ccc(C(=O)NCCOCCOCCN)cc3)c2-c2ccc(OC)cc2)cc1` [Example 48, N-(2-(2-(2-aminoethoxy)ethoxy)ethyl)-4-((4,5-bis(4-methoxyphenyl)-2-(3,4,5-trimethoxyphenyl)-1H-imidazole-1-yl)methyl)benzamide], the cytotoxicity at 15 µM worked out at 23 ± 0.68% in the experiment on A549 cells and 30 ± 0.76% in the experiment with HeLa cells.

As to `NCCOCCOCCNC(=O)c1ccc(Cn2c(-c3cc(C(F)(F)F)cc(C(F)(F)F)c3)nc(-c3ccc(Cl)cc3)c2-c2ccc(Cl)cc2)cc1` [Example 49, N-(2-(2-(2-aminoethoxy)ethoxy)ethyl)-4-((2-(3,5-bis(trifluoromethyl)phenyl)-4,5-bis(4-chlorophenyl)-1H-imidazole-1-yl)methyl)benzamide], the “Apoptosis (%) A549 cells” value in the experiment with A549 cells amounted to 0 ± 1.26%. In addition, in the experiment on HeLa cells, the “Apoptosis (%) HeLa cells” value was 26 ± 0.38%.

Consider `COc1ccc(-c2nc(-c3cccc(C(F)(F)F)c3)n(Cc3ccc(C(=O)NCCOCCOCCN)cc3)c2-c2ccc(OC)cc2F)c(F)c1` [Example 68, N-(2-(2-(2-aminoethoxy)ethoxy)ethyl)-4-((4,5-bis(2-fluoro-4-methoxyphenyl)-2-(3-(trifluoromethyl)phenyl)-1H-imidazole-1-yl)methyl)benzamide], for which the values for the cytotoxicity at 15 µM with A549 cells and in the experiment with HeLa cells were 58 ± 1.48% and 89 ± 0.28%, respectively.

For `COC(=O)c1cc(C(=O)OC)cc(-c2nc(-c3ccc(OC)cc3)c(-c3ccc(OC)cc3)n2Cc2ccc(C(=O)NCCOCCOCCN)cc2)c1` [Example 100, Dimethyl 5-(1-(4-(2-(2-(2-aminoethoxy)ethoxy)ethylcarbamoyl)benzyl)-4,5-bis(4-methoxyphenyl)-1H-imidazole-2-yl)isophthalate], in the experiment on A549 cells, the “Apoptosis (%) A549 cells” value amounted to 31 ± 1.78%. Further, the “Apoptosis (%) HeLa cells” value in the experiment on HeLa cells is reported as 37 ± 1.54%.

As to `COc1ccc(-c2nc(-c3cc(OC)c(OC)c(OC)c3)n(Cc3ccc(C(=O)NCCOCCOCCN)cc3)c2-c2ccc(OC)cc2)cc1` [Example 102, N-(2-(2-(2-aminoethoxy)ethoxy)ethyl)-4-((4,5-bis(4-methoxyphenyl)-2-(3,4,5-trimethoxyphenyl)-1H-imidazole-1-yl)methyl)benzamide], the “Apoptosis (%) A549 cells” value with A549 cells is listed as 25 ± 1.92%. In addition, the “Apoptosis (%) HeLa cells” value in the experiment on HeLa cells amounted to 29 ± 2.30%.

Take `NCCOCCOCCNC(=O)c1ccc(Cn2c(-c3cc(C(F)(F)F)cc(C(F)(F)F)c3)nc(-c3ccc4c(c3)OCO4)c2-c2ccc3c(c2)OCO3)cc1` [Example 103, N-(2-(2-(2-aminoethoxy)ethoxy)ethyl)-4-((4,5-di(benzo[d][1,3]dioxol-5-yl)-2-(3,5-bis(trifluoromethyl)phenyl)-1H-imidazole-1-yl)methyl)benzamide]: the cytotoxicity at 15 µM in the experiment with A549 cells and with HeLa cells was 0% each time.

Regarding `NCCOCCOCCNC(=O)c1ccc(Cn2c(-c3cc(C(F)(F)F)cc(C(F)(F)F)c3)nc(-c3ccc4ccccc4c3)c2-c2ccc3ccccc3c2)cc1` [Example 105, N-(2-(2-(2-aminoethoxy)ethoxy)ethyl)-4-((2-(3,5-bis(trifluoromethyl)phenyl)-4,5-di(naphthalene-2-yl)-1H-imidazole-1-yl)methyl)benzamide], the figures for the cytotoxicity at 15 µM in the experiment on A549 cells and in the experiment with HeLa cells were 39 ± 0.48% and 49 ± 0.41%, respectively.

On to `NCCOCCOCCNC(=O)c1ccc(Cn2c(-c3cc(C(F)(F)F)cc(C(F)(F)F)c3)nc(-c3ccc4ncccc4c3)c2-c2ccc3ncccc3c2)cc1` [Example 106, N-(2-(2-(2-aminoethoxy)ethoxy)ethyl)-4-((2-(3,5-bis(trifluoromethyl)phenyl)-4,5-di(quinoline-6-yl)-1H-imidazole-1-yl)methyl)benzamide], for which the cytotoxicity at 15 µM stood at 38 ± 1.28% in the experiment with A549 cells and 42 ± 0.76% with HeLa cells.

As to `COc1ccc(-c2nc(-c3cc(O)cc(O)c3)n(Cc3ccc(C(N)=O)cc3)c2-c2ccc(OC)cc2)cc1` [Example 107, 4-((2-(3,5-dihydroxyphenyl)-4,5-bis(4-methoxyphenyl)-1H-imidazole-1-yl)methyl)benzamide], the cytotoxicity at 15 µM with A549 cells was 16 ± 0.3%; with HeLa cells, 0%.

For the compound `COc1ccc(-c2nc(-c3cc(C#N)cc(C#N)c3)n(Cc3ccc(C(N)=O)cc3)c2-c2ccc(OC)cc2)cc1` [Example 108, 4-((2-(3,5-dicyanophenyl)-4,5-bis(4-methoxyphenyl)-1H-imidazole-1-yl)methyl)benzamide], the results for the cytotoxicity at 15 µM in the experiment with A549 cells and in the experiment with HeLa cells were 2 ± 0.8% and 12 ± 1.26%, respectively.

Consider `COc1ccc(-c2nc(-c3cc(C(F)(F)F)cc(C(F)(F)F)c3)n(Cc3ccc(C(=O)NO)cc3)c2-c2ccc(OC)cc2)cc1` [Example 117, 4-((2-(3,5-bis(trifluoromethyl)phenyl)-4,5-bis(4-methoxyphenyl)-1H-imidazole-1-yl)methyl)-N-hydroxybenzamide], for which the figures for the cytotoxicity at 15 µM in the experiment on A549 cells and in the experiment on HeLa cells were 43 ± 0.52% and 40 ± 1.67%, respectively.

On to `COc1ccc(-c2nc(-c3cc(C(F)(F)F)cc(C(F)(F)F)c3)n(Cc3ccc(C(N)=S)cc3)c2-c2ccc(OC)cc2)cc1` [Example 118, 4-((2-(3,5-bis(trifluoromethyl)phenyl)-4,5-bis(4-methoxyphenyl)-1H-imidazole-1-yl)methyl)benzothioamide], for which the cytotoxicity at 15 µM in the experiment on A549 cells stood at 50 ± 0.41%; with HeLa cells, 50 ± 1.66%.
